In patent US20240158370A1, “CK1 alpha AND DUAL CK1 alpha / GSPT1 DEGRADING COMPOUNDS” (Innovo Therapeutics, Inc., priority 2022, published 2024):

Experiments:
[1] = biological target: GSPT1 (Homo sapiens, UniProt P15170+Q96SW2); test: HiBiT degradation assay, GSPT1, Procedure A; assay type: cell-based; parameters: HiBit-GSPT1 KI HEK293(LgBit) Cells; host or cells: HEK293(LgBit) knock-in cells; conditions: six hours
How it was run: (§1)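 Cells in DMEM+10% FBS at 1×10^6 cells/ml were added to pre-spotted compound (10-point dose response, 10 μM to 0.005 μM, 0.1% DMSO) and incubated 6 h at 37° C. Nano-Glo HiBiT lytic reagent was added and luminescence read. DC50 and Ymin came from 4-parameter curve fits.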

[2] = biological target: T1, CK1α (Homo sapiens, UniProt P48729+Q96SW2); test: HiBiT degradation assay, CK1α, Procedure A; assay type: cell-based; conditions: six hours
T1 construct: CSNK1A1-HiBit KI HEK293(LgBit) Cells; host or cells: HEK293(LgBit) knock-in cells
How it was run: as §1

T1 sequence (P48729 whole entry): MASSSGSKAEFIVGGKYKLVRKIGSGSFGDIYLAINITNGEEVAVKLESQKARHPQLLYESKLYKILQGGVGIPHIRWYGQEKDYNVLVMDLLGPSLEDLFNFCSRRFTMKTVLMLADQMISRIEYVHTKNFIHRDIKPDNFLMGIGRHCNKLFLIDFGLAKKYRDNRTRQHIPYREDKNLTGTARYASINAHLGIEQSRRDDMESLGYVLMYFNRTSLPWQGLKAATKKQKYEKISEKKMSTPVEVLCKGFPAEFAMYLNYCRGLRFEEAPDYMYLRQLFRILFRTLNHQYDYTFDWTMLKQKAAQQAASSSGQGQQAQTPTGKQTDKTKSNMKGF
T1 sequence (Q96SW2 whole entry): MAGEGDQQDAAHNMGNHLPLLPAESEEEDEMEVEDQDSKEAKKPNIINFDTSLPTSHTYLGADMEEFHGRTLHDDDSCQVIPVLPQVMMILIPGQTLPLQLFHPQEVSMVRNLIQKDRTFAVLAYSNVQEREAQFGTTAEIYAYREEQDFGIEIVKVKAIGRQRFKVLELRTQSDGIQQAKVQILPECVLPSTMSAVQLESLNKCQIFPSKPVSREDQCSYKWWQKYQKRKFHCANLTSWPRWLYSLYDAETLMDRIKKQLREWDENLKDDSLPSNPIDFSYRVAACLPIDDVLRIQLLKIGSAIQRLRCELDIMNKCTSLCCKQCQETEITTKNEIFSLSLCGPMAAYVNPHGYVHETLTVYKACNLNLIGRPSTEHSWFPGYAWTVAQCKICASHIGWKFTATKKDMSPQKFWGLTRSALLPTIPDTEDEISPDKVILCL
T1 sequence (Q16531 whole entry partner): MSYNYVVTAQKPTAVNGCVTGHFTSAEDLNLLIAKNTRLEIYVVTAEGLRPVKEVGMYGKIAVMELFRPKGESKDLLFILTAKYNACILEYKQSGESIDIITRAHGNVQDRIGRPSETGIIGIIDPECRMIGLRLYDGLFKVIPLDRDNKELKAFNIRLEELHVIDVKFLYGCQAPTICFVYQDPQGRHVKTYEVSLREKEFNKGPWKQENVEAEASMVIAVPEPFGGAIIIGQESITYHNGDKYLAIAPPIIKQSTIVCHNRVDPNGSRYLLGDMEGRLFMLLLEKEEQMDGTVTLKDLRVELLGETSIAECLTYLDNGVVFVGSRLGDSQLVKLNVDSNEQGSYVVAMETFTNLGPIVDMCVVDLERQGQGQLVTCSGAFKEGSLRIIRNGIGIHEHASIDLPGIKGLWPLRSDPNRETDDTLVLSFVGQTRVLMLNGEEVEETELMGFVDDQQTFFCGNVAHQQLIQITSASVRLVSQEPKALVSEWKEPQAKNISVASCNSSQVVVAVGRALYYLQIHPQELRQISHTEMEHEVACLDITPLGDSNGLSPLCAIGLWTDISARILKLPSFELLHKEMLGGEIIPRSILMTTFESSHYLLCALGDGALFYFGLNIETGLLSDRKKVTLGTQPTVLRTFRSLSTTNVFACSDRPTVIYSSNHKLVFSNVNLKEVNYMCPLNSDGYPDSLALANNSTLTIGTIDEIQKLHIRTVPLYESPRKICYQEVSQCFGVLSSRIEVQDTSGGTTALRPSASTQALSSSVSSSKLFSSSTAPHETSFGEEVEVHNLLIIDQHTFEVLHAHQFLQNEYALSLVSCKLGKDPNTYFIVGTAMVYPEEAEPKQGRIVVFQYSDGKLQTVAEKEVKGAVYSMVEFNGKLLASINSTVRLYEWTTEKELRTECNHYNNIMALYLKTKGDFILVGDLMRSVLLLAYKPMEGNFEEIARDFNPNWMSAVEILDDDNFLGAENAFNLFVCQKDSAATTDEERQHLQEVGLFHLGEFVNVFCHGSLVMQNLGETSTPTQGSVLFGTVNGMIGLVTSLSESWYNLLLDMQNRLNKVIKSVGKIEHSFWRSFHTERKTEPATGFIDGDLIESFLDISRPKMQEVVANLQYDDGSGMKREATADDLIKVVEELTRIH
Sequence of GSPT1 (P15170 whole entry): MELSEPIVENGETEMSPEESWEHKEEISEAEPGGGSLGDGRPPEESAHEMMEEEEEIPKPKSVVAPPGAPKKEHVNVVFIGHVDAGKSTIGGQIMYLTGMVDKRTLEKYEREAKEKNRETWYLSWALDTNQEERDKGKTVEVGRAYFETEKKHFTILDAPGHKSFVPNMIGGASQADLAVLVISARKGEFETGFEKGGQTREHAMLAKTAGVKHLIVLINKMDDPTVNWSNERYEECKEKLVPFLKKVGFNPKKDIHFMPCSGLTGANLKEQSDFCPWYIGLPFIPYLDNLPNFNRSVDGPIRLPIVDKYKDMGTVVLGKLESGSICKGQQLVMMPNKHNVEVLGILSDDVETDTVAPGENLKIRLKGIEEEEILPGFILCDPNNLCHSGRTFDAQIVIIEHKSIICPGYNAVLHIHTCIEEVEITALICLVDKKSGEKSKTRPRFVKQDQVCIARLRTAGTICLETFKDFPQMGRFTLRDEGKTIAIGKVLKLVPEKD
Sequence of GSPT1 (Q96SW2 whole entry): as the sequence (Q96SW2 whole entry) above
Sequence of GSPT1 (Q16531 whole entry partner): as the sequence (Q16531 whole entry partner) above

SMILES | DC50 [1] [nM] | GSPT1 Ymin [1] | CK1α Ymin [2] | DC50 [2] [nM]
Cn1ncc(-c2ccc3c(c2)CN(C2CCC(=O)NC2=O)C3=O)c1-c1ccc(N2CCCCC2)nc1 (stereo not drawn) [Example 465] | ≥ 25 | F (F = >75-100% remaining) | E (E = >25-75% remaining) | ≥ 25
Cn1ncc(-c2ccc3c(c2)CN(C2CCC(=O)NC2=O)C3=O)c1-c1ccc(N2CCOCC2)nc1 (stereo not drawn) [Example 466] | ≥ 25 | F (F = >75-100% remaining) | F (F = >75-100% remaining) | < 25
Cn1ncc(-c2ccc3c(c2)CN(C2CCC(=O)NC2=O)C3=O)c1-c1cncc(OCc2ccccc2)c1 (stereo not drawn) [Example 467] | ≥ 25 | – | F (F = >75-100% remaining) | ≥ 25
Cn1ncc(-c2ccc3c(c2)CN(C2CCC(=O)NC2=O)C3=O)c1-c1cn[nH]c1 (stereo not drawn) [Example 468] | ≥ 25 | F (F = >75-100% remaining) | E (E = >25-75% remaining) | ≥ 25
Cn1ncc(-c2ccc3c(c2)CN(C2CCC(=O)NC2=O)C3=O)c1-c1cc[nH]n1 (stereo not drawn) [Example 469] | ≥ 25 | F (F = >75-100% remaining) | D (D = >10- 25% remaining) | ≥ 25
Cn1ccc(-c2c(-c3ccc4c(c3)CN(C3CCC(=O)NC3=O)C4=O)cnn2C)n1 (stereo not drawn) [Example 470] | ≥ 25 | F (F = >75-100% remaining) | E (E = >25-75% remaining) | ≥ 25
Cn1ncc(-c2ccc3c(c2)CN(C2CCC(=O)NC2=O)C3=O)c1-c1cccs1 (stereo not drawn) [Example 471] | ≥ 25 | F (F = >75-100% remaining) | C (C = 0-10% remaining) | < 25
Cc1ncccc1-c1c(-c2ccc3c(c2)CN(C2CCC(=O)NC2=O)C3=O)cnn1C (stereo not drawn) [Example 472] | ≥ 25 | F (F = >75-100% remaining) | E (E = >25-75% remaining) | < 25
COc1ccsc1-c1c(-c2ccc3c(c2)CN(C2CCC(=O)NC2=O)C3=O)cnn1C (stereo not drawn) [Example 473] | ≥ 25 | F (F = >75-100% remaining) | E (E = >25-75% remaining) | < 25
Cn1ncc(-c2ccc3c(c2)CN(C2CCC(=O)NC2=O)C3=O)c1-c1c[nH]c2ccccc12 (stereo not drawn) [Example 474] | ≥ 25 | F (F = >75-100% remaining) | D (D = >10- 25% remaining) | < 25
Cn1ncc(-c2ccc3c(c2)CN(C2CCC(=O)NC2=O)C3=O)c1-c1ccc2c(c1)ncn2C (stereo not drawn) [Example 476] | ≥ 25 | F (F = >75-100% remaining) | D (D = >10- 25% remaining) | ≥ 25
Cn1ncc(-c2ccc3c(c2)CN(C2CCC(=O)NC2=O)C3=O)c1-c1ccc2c(c1)CCCO2 (stereo not drawn) [Example 477] | ≥ 25 | F (F = >75-100% remaining) | C (C = 0-10% remaining) | < 25
Cn1ncc(-c2ccc3c(c2)CN(C2CCC(=O)NC2=O)C3=O)c1-c1ccc2sccc2c1 (stereo not drawn) [Example 478] | ≥ 25 | F (F = >75-100% remaining) | D (D = >10- 25% remaining) | < 25
Cn1ncc(-c2ccc3c(c2)CN(C2CCC(=O)NC2=O)C3=O)c1-c1cccc(-n2cccn2)c1 (stereo not drawn) [Example 479] | ≥ 25 | F (F = >75-100% remaining) | E (E = >25-75% remaining) | < 25
Cn1ncc(-c2ccc3c(c2)CN(C2CCC(=O)NC2=O)C3=O)c1-c1cnn(Cc2ccccc2)c1 (stereo not drawn) [Example 480] | ≥ 25 | F (F = >75-100% remaining) | E (E = >25-75% remaining) | ≥ 25

The remaining lines, values ahead:

DC50 [1] [nM] | GSPT1 Ymin [1] | CK1α Ymin [2] | DC50 [2] [nM] | SMILES
< 25 | E (E = >25-75% remaining) | C (C = 0-10% remaining) | < 25 | Cn1cnc(-c2ccc3c(c2)CN(C2CCC(=O)NC2=O)C3=O)c1-c1ccc(-n2cccn2)cc1 (stereo not drawn) [Example 444]
≥ 25 | F (F = >75-100% remaining) | E (E = >25-75% remaining) | < 25 | Cn1cnc(-c2ccc3c(c2)CN(C2CCC(=O)NC2=O)C3=O)c1-c1ccc(F)cc1C(F)(F)F (stereo not drawn) [Example 445]
< 25 | F (F = >75-100% remaining) | D (D = >10- 25% remaining) | < 25 | COc1ccc2cc(-c3c(-c4ccc5c(c4)CN(C4CCC(=O)NC4=O)C5=O)ncn3C)ccc2c1 (stereo not drawn) [Example 446]
≥ 25 | F (F = >75-100% remaining) | D (D = >10- 25% remaining) | ≥ 25 | Cn1cnc(-c2ccc3c(c2)CN(C2CCC(=O)NC2=O)C3=O)c1-c1ccc(C(=O)Nc2ccccn2)cc1 (stereo not drawn) [Example 447]
≥ 25 | F (F = >75-100% remaining) | D (D = >10- 25% remaining) | ≥ 25 | Cn1cnc(-c2ccc3c(c2)CN(C2CCC(=O)NC2=O)C3=O)c1-c1ccc(S(=O)(=O)NC2CCCCC2)cc1 (stereo not drawn) [Example 448]
≥ 25 | F (F = >75-100% remaining) | E (E = >25-75% remaining) | ≥ 25 | CN1CCN(S(=O)(=O)c2ccc(-c3c(-c4ccc5c(c4)CN(C4CCC(=O)NC4=O)C5=O)ncn3C)cc2)CC1 (stereo not drawn) [Example 449]
≥ 25 | F (F = >75-100% remaining) | F (F = >75-100% remaining) | ≥ 25 | Cn1ncc(-c2ccc3c(c2)CN(C2CCC(=O)NC2=O)C3=O)c1-c1ccnnc1 (stereo not drawn) [Example 450]
≥ 25 | F (F = >75-100% remaining) | E (E = >25-75% remaining) | ≥ 25 | Cn1nccc1-c1c(-c2ccc3c(c2)CN(C2CCC(=O)NC2=O)C3=O)cnn1C (stereo not drawn) [Example 451]
≥ 25 | F (F = >75-100% remaining) | E (E = >25-75% remaining) | < 25 | Cc1oncc1-c1c(-c2ccc3c(c2)CN(C2CCC(=O)NC2=O)C3=O)cnn1C (stereo not drawn) [Example 452]
≥ 25 | F (F = >75-100% remaining) | E (E = >25-75% remaining) | < 25 | Cn1ncc(-c2ccc3c(c2)CN(C2CCC(=O)NC2=O)C3=O)c1-c1cccnc1N (stereo not drawn) [Example 453]
≥ 25 | F (F = >75-100% remaining) | F (F = >75-100% remaining) | ≥ 25 | Cc1cc(-c2c(-c3ccc4c(c3)CN(C3CCC(=O)NC3=O)C4=O)cnn2C)n(C)n1 (stereo not drawn) [Example 454]
≥ 25 | F (F = >75-100% remaining) | E (E = >25-75% remaining) | ≥ 25 | Cn1ncc(-c2ccc3c(c2)CN(C2CCC(=O)NC2=O)C3=O)c1-c1cccc(C#N)n1 (stereo not drawn) [Example 455]
≥ 25 | F (F = >75-100% remaining) | E (E = >25-75% remaining) | ≥ 25 | COc1cncc(-c2c(-c3ccc4c(c3)CN(C3CCC(=O)NC3=O)C4=O)cnn2C)c1 (stereo not drawn) [Example 456]
≥ 25 | F (F = >75-100% remaining) | E (E = >25-75% remaining) | ≥ 25 | Cn1ncc(-c2ccc3c(c2)CN(C2CCC(=O)NC2=O)C3=O)c1-c1ccn(C)c(=O)c1 (stereo not drawn) [Example 457]
< 25 | F (F = >75-100% remaining) | F (F = >75-100% remaining) | < 25 | COc1ccncc1-c1c(-c2ccc3c(c2)CN(C2CCC(=O)NC2=O)C3=O)cnn1C (stereo not drawn) [Example 458]
≥ 25 | F (F = >75-100% remaining) | E (E = >25-75% remaining) | < 25 | Cn1ncc(-c2ccc3c(c2)CN(C2CCC(=O)NC2=O)C3=O)c1-c1ccc(=O)n(C)c1 (stereo not drawn) [Example 459]
≥ 25 | F (F = >75-100% remaining) | D (D = >10- 25% remaining) | ≥ 25 | Cn1ncc(-c2ccc3c(c2)CN(C2CCC(=O)NC2=O)C3=O)c1-c1ccc2nc[nH]c2c1 (stereo not drawn) [Example 460]
≥ 25 | F (F = >75-100% remaining) | C (C = 0-10% remaining) | ≥ 25 | Cn1ncc(-c2ccc3c(c2)CN(C2CCC(=O)NC2=O)C3=O)c1-c1ccc2cncn2c1 (stereo not drawn) [Example 461]
≥ 25 | F (F = >75-100% remaining) | E (E = >25-75% remaining) | ≥ 25 | Cn1ncc(-c2ccc3c(c2)CN(C2CCC(=O)NC2=O)C3=O)c1-c1ccc2nccnc2c1 (stereo not drawn) [Example 462]
≥ 25 | F (F = >75-100% remaining) | D (D = >10- 25% remaining) | ≥ 25 | Cn1ncc(-c2ccc3c(c2)CN(C2CCC(=O)NC2=O)C3=O)c1-c1ccc2ncn(C)c2c1 (stereo not drawn) [Example 463]
≥ 25 | F (F = >75-100% remaining) | F (F = >75-100% remaining) | ≥ 25 | Cn1ncc(-c2ccc3c(c2)CN(C2CCC(=O)NC2=O)C3=O)c1-c1cnn(Cc2cccnc2)c1 (stereo not drawn) [Example 464]
< 25 | F (F = >75-100% remaining) | E (E = >25-75% remaining) | ≥ 25 | Cn1ncc(-c2ccc3c(c2)CN(C2CCC(=O)NC2=O)C3=O)c1-c1cnn(C2CCC2)c1 (stereo not drawn) [Example 475]
